Measured values: article PMC10154249, “Unique progerin C-terminal peptide ameliorates Hutchinson–Gilford progeria syndrome phenotype by rescuing BUBR1” (Nature Aging, 2023)

Legend:
[1] = test system: BUBR1 kinetochore localization in H1299 cells; assay: Immunofluorescence, abnormal localization of BUBR1 in H1299 cells; type: cell-based; settings: for Relative percentage of the number of abnormal localization cells of BUBR1: Fig. 3h, H1299, progerin+UPCP, P=0.0202 vs progerin
Experimental: (§1) Immunofluorescence was performed as described previously. Cells were plated on cover slips in 12-well plates, left overnight before the treatment. Cells were fixed in 1% formaldehyde in culture medium for 10 min at 37 °C and permeabilized with 0.2% Triton X-100 in PBS for 10 min at room temperature. Cells were washed twice in PBS and blocked for 1 h with 5% BSA in PBS and then incubated with primary antibodies at 4 °C overnight, washed three times in PBS and incubated with secondary antibodies for 1 h at room temperature. Cell nuclei were counterstained with a 500 nM concentration of 4,6-diamidino-2-phenylindole (DAPI) (Sigma). Images were acquired by a fluorescence microscope (OLYMPUS FV-1000, Carl Zeiss LSM880 or Leica DMi8) and analyzed with software NIS-Elements AR v.5.0.1 (Nikon), FLUOVIEW v.4.2b (OLYMPUS), ZEN v.2.3 SP1 (Carl Zeiss) and Leica Application Suite X v.3.6.0.24 (Leica). Cells were quantified by investigators who were blinded to the identity of the analyzed cell.

HGADFN003 cells [2] = assay: Ki67 immunofluorescence of HGADFN003 cells; type: cell-based, human; settings: for Relative percentage of Ki67 positive cells: Fig. 5b, Mock 32, 39, 45, P=0.0148; for Ki67 positive cells: HGADFN003, Extended Data Fig. 10e
Experimental: as §1

HGADFN003 cells [3] = assay: CyclinA2 immunofluorescence of HGADFN003 cells; type: cell-based, human
Experimental: as §1

BUBR1 mRNA = BUBR1 mRNA stability assay with Actinomycin D; type: cell-based, human; settings: HGADFN003 cells, UPCP together with Act D
Experimental: RNA preparation was performed as described. Total RNA was extracted using Trizol reagent (TaKaRa) following the manufacturer’s instructions. cDNA was generated with M-MLV reverse transcriptase (Promega, catalog no. M170B). Reverse transcription with PCR (RT-PCR) was performed with SYBR Green Real-Time PCR Master Mix (TaKaRa). RT-PCR was carried out on a QuantStudio 3 Real-Time-PCR Instrument (ABI). Data were analyzed and further processed in QuantStuido Design and Analysis Software and GraphPad Prism v.7. Fold change in gene expression over control samples was calculated using the 2^–ΔΔCt method, where β-actin Ct values were used as an internal control. The primer sequences for PCR, synthesized by Comate Bioscience, were as follows: […]

[4] = test system: BUBR1 in NIH-3T3-progerin cells; assay: Western blot of BUBR1 in progerin-expressing NIH-3T3 cells; type: cell-based
Experimental: (§2) Western blot was performed as previously described. Cells were lysed in 1× Laemmli sample buffer after washing twice in cold PBS without calcium and magnesium. Protein concentrations were determined using the bicinchoninic acid (BCA) protein assay. Protein lysates were subjected to SDS–PAGE, transferred to 0.45-μm pore size hydrophobic PVDF transfer membrane (Merck Millipore), detected with the appropriate primary antibodies coupled with horseradish peroxidase-conjugated corresponding secondary antibodies, and visualized using enhanced chemiluminescence ECL reagent (GE Healthcare). The Tanon 5500 high-definition low-illumination CCD system (Tanon FLI Capture v.1.02) was used to capture chemiluminescent signals.

Lmna^G609G/G609G mice = assay: Bodyweight of Lmna^G609G/G609G mice; type: in vivo, mouse; settings: 20 mg kg^–1 i.p. every other day from 14 days of age
Description: All animal experiments were approved by the Ethics Committee of School of Life Sciences, Northeast Normal University, China (AP20191011) and carried out in accordance with the relevant guidelines: National Standards of the People’s Republic of China (GB/T 35892–2018), Laboratory Animal—Guideline for Ethical Review of Animal Welfare. We generated a mouse model (ICR background), carrying the Lmna^G609G using the BE4-Gam system. The protocols for the BE4-Gam system and microinjection of pronuclear-stage embryos have been described in detail previously[37],[38],[59]. Briefly, a mixture of BE4-Gam mRNA (200 ng μl^–1) and sgRNA-Lmna (30 ng μl^–1) was coinjected into the cytoplasm of pronuclear-stage embryos of the mouse. The injected embryos were transferred to embryo culture medium for 30–60 min, followed by transferring the injected embryos into the recipient mother. The embryos continued to develop and the founder mice (referred to as F0) were born: wild-type mice (Lmna^+/+), heterozygous mice (Lmna^G609G/+) and homozygous mice (Lmna^G609G/G609G). […]
For UPCP injection, 14-day-old Lmna^G609G/G609G mice were injected intraperitoneally with either PBS or UPCP (20 mg kg^–1, every other day) and wild-type mice were injected with PBS. […] Bodyweight and lifespan were monitored after UPCP treatment. The survival rate was analyzed by the Kaplan–Meier method. […]

[5] = test system: BUBR1 / CyclinA2 in HGADFN003 cells; assay: Western blot of BUBR1 and CyclinA2 in HGADFN003 cells; type: cell-based, human
Experimental: as §2

Question: Which results are given for “H-YGRKKRRQRRRYNLRSRTVLCGTCGQPADKASASGSGAQSPQNCSIM-OH (cysteines drawn unpaired) [UPCP, unique progerin C-terminal peptide]”?
Answer: Relative percentage of the number of abnormal localization cells of BUBR1 ([1]; replicate 1): 25%; Relative percentage of the number of abnormal localization cells of BUBR1 ([1]; replicate 2): 18%; Relative percentage of the number of abnormal localization cells of BUBR1 ([1]; replicate 3): 27%; BUBR1 localization to the kinetochore ([1]; H1299 cells, immunofluorescence): correctly localized BUBR1 to the kinetochore; Relative percentage of Ki67 positive cells (HGADFN003 cells [2]; HGADFN003, replicate 1): 54%; Relative percentage of Ki67 positive cells (HGADFN003 cells [2]; HGADFN003, replicate 2): 62%; Relative percentage of Ki67 positive cells (HGADFN003 cells [2]; HGADFN003, replicate 3): 68%; Ki67 expression (FTI-277/UPCP comparison, words) (HGADFN003 cells [2]; HGADFN003): increasing expression of BUBR1, CyclinA2 and Ki67; Ki67 positive cells (HGADFN003 cells [2]; replicate 1): 65%; Ki67 positive cells (HGADFN003 cells [2]; replicate 2): 55%; Ki67 positive cells (HGADFN003 cells [2]; replicate 3): 72%; Ki67 positive staining (HGADFN003 cells [2]; HGPS cells): increased Ki67 positive staining; CyclinA2 positive cells (HGADFN003 cells [3]; HGADFN003, 2h, replicate 1): 25%; CyclinA2 positive cells (HGADFN003 cells [3]; HGADFN003, 2h, replicate 2): 35.7143%; CyclinA2 positive cells (HGADFN003 cells [3]; HGADFN003, 2h, replicate 3): 33.3333%; CyclinA2 positive cells (HGADFN003 cells [3]; HGADFN003, 4h, replicate 1): 42.8571%; CyclinA2 positive cells (HGADFN003 cells [3]; HGADFN003, 4h, replicate 2): 43.4783%; CyclinA2 positive cells (HGADFN003 cells [3]; HGADFN003, 4h, replicate 3): 31.8182%; CyclinA2 positive cells (HGADFN003 cells [3]; HGADFN003, 6h, replicate 1): 35.2941%; CyclinA2 positive cells (HGADFN003 cells [3]; HGADFN003, 6h, replicate 2): 33.3333%; CyclinA2 positive cells (HGADFN003 cells [3]; HGADFN003, 6h, replicate 3): 45.8333%; CyclinA2 positive cells (HGADFN003 cells [3]; HGADFN003, 24h, replicate 1): 42.3077%; CyclinA2 positive cells (HGADFN003 cells [3]; HGADFN003, 24h, replicate 2): 41.1765%; CyclinA2 positive cells (HGADFN003 cells [3]; HGADFN003, 24h, replicate 3): 48.5714%; CyclinA2 positive cells (HGADFN003 cells [3]; HGADFN003, 48h, replicate 1): 59.0909%; CyclinA2 positive cells (HGADFN003 cells [3]; HGADFN003, 48h, replicate 2): 58.3333%; CyclinA2 positive cells (HGADFN003 cells [3]; HGADFN003, 48h, replicate 3): 56.7568%; level of CyclinA2 (HGADFN003 cells [3]; HGPS cells): increased level of CyclinA2; BUBR1 mRNA level with Act D (BUBR1 mRNA): mRNA levels of BUBR1 were significantly increased; BUBR1 abundance [4]: upregulated BUBR1; bodyweight, female (Lmna^G609G/G609G mice; female): slow down the bodyweight loss; bodyweight, male (Lmna^G609G/G609G mice; male): increase the bodyweight; BUBR1 expression (FTI-277/UPCP comparison, words) ([5]; HGADFN003): increasing expression of BUBR1; CyclinA2 expression (FTI-277/UPCP comparison, words) ([5]; HGADFN003): increasing expression of BUBR1, CyclinA2; BUBR1 abundance ([5]; HGADFN003 cells, UPCP 0–10 μM, Western blot): upregulated BUBR1
